Assays:
Format in all cases: cell-based
[1] = system: Chaetomium globosum, ATCC 16021; assay: Fungal test, inhibition halo in Petri dish with central well; settings: tests with well, 25° C.
Procedure: (§1) A study about the efficacy of the composition of the present invention to some fungi was conducted. The compositions were tested according to the MIC method. The methodology being used is herein reported.
(§2) The tested fungi strains were as follows: i) Aspergillus niger, ATCC 16404; ii) Trichoderma viride, ATCC 28020; iii) Penicillium funiculosum ATCC 9644 and iv) Chaetomium globosum, ATCC 16021.
(§3) For each strain, time by time, a culture in liquid nutrient medium such as SABORAUD DEXEROSE AGAR was made.
(§4) Freshly-made subcultures were created, and incubated until obtaining an estimated density of […]. The estimate was obtained by spectrophotometric measurement of absorption at 530 nm.
(§5) Bacteriostatic tests: The tests were performed by placing fungal culture aliquots (set forth in the tables below) in Petri dishes with a central well (1 centimeter diameter) in which the product to be tested was poured. All the plates were incubated at 25° C. The incubation time for solutions A, B, C, D, E and F was 72 hours, while for products. M1, M2 and M3 the time was 30 hours.
(§6) The results are expressed as inhibition halo diameter being measured over each plate. […] Consequently, a 0 mm diameter denotes an undetectable halo. The described values indicate the average from the minimum and maximum values of halos for each test. Values are expressed in mm of inhibition.

[2] = system: Penicillium funiculosum ATCC 9644; assay: as above; settings: tests with well, 25° C.
Procedure: as §1, §2, §3, §4, §5, §6

[3] = system: Aspergillus niger, ATCC 16404; assay: as above; settings: tests with well, 25° C.
Procedure: as §1, §2, §3, §4, §5, §6

[4] = system: Trichoderma viride, ATCC 28020; assay: as above; settings: tests with well, 25° C.
Procedure: as §1, §2, §3, §4, §5, §6

fungi = assay: Fungal tests, overall conclusion versus fluconazole; settings: 0.07 mg versus 2 mg (about 1:28 ratio); alone or combined with each other
Procedure: as §1, §2, §5, §6

[5] = system: Escherichia coli ATCC 25922; assay: Bacteriostatic test, inhibition halo in Petri dish with central well; settings: 2 cc of a 0.7% solution equal to 35 mg, diameter does not include the 10 mm central well
Procedure: (§7) A study about the efficacy of a gascardic acid-based composition referred to as M3 was conducted against some publicly available pathogenic bacteria such as (1) Staphylococcus aureus—ATCC 25923 (190×10^6 UFC/ml) (2) Pseudomonas aeruginosa—ATCC 15442 (305×10^6 UFC/ml) and (3) Escherichia coli—ATCC 25922 (300×10^6 UFC/ml). The composition M3 was tested according to MIC method.
(§8) The method was carried out as follows. Time by time, a culture of the above-mentioned strains was prepared in a Tryptic soy Agar type growth medium. Freshly-made subcultures were prepared, and incubated until obtaining an estimated density of 1×10^6 cells per ml of culture. The assessment was obtained by spectrophotometric measurement of absorption at known wavelengths.
(§9) The bacteriostatic tests were performed by placing the bacterial culture in Petri dishes with a central well of 1 cm diameter, containing the 2 cc aliquot of composition M3. Then, the freshly-made subculture was plated over the surrounding medium. Next, the Petri dishes were placed in a thermostatic environment at 30° C. and examined after 24 and 48 ore.
(§10) The results are expressed as inhibition halo diameter measured over each Petri dish. […] Consequently, a zero mm (0 mm) diameter denotes an undetectable halo. The given average values are obtained by considering the minimum and maximum value of each halo.
(§11) According to the above-described MIC method, a test where the pathogenic bacteria (1) Staphylococcus aureus ATCC 25923 (2) Pseudomonas aeruginosa ATCC 15442 and (3) Escherichia coli ATCC 25922 were tested along using composition M5 and composition M5+M3 was conducted.

[6] = system: Pseudomonas aeruginosa ATCC 15442; assay: as above; settings: 2 cc of a 0.7% solution equal to 35 mg, diameter does not include the 10 mm central well
Procedure: as §7, §8, §9, §10, §11

[7] = system: Staphylococcus aureus ATCC 25923; assay: as above; settings: 2 cc of a 0.7% solution equal to 35 mg, diameter does not include the 10 mm central well
Procedure: as §7, §8, §9, §10, §11

[8] = incubation 72 hours, 1 cc per plate
[9] = incubation 30 hours, 1 cc (0.07 mg of compound)

Compound	mm of inhibition (inhibition halo diameter) [1, 8]	mm of inhibition (inhibition halo diameter) [2, 8] [mm]	mm of inhibition (inhibition halo diameter) [3, 8] [mm]	mm of inhibition (inhibition halo diameter) [4, 8] [mm]	mm of inhibition (inhibition halo diameter) [1, 9]	mm of inhibition (inhibition halo diameter) [2, 9]	mm of inhibition (inhibition halo diameter) [3, 9]	mm of inhibition (inhibition halo diameter) [4, 9]	fungicidal activity compared with M4 (fluconazole) (fungi)	Halo in mm (inhibition halo diameter) [5] [mm]	Halo in mm (inhibition halo diameter) [6] [mm]	Halo in mm (inhibition halo diameter) [7] [mm]
OC(Cn1cncn1)(Cn1cncn1)c1ccc(F)cc1F [Test A, Fluconazole, reference compound]	11-17 mm	0	1	0	–	–	–	–	–	–	–	–
C=C(C)[C@@H]1CC[C@]2(C(=O)O)CC[C@]3(C)[C@H](CC[C@@H]4[C@@]5(C)CC[C@H](O)C(C)(C)[C@@H]5CC[C@]43C)[C@@H]12 [Test M1, Betulinic acid]	–	–	–	–	22-26 mm	12-18 (*) mm	15-16 mm	31-34 (*) mm	–	–	–	–
C[C@H]1C(=O)CC[C@@H]2[C@]1(C)CC[C@H]1[C@@]2(C)CC[C@@]2(C)[C@@H]3CC(C)(C)CC[C@]3(C)CC[C@]12C [Test M2, Fridelin]	–	–	–	–	5-11 (*) mm	1-1.5 mm	3-4 mm	2-6 mm	strong fungicidal activity than M4	–	–	–
Gascardic acid [Test M3]	–	–	–	–	19-26 mm	15-20 (*) mm	15-18 mm	16-27 mm	strong fungicidal activity than M4	6	6	8
